Reference: patent US20150258129A1, “Method for Increasing the Activity of Lysosomal Enzymes” (Mount Sinai School of Medicine of New York University, priority 1998, published 2015)

Key:
[1] = target: T1, glucocerebrosidase (β-Glu), N370S/N370S (Homo sapiens, UniProt P04062, N409S); assay: Intracellular enhancement of β-Glu activity in Gaucher fibroblasts (N370S/N370S); format: cell-based
T1 construct: endogenous in cells; host or cells: human Gaucher patient fibroblasts, genotype N370S/N370S
T1 sequence (P04062 40-536 N409S): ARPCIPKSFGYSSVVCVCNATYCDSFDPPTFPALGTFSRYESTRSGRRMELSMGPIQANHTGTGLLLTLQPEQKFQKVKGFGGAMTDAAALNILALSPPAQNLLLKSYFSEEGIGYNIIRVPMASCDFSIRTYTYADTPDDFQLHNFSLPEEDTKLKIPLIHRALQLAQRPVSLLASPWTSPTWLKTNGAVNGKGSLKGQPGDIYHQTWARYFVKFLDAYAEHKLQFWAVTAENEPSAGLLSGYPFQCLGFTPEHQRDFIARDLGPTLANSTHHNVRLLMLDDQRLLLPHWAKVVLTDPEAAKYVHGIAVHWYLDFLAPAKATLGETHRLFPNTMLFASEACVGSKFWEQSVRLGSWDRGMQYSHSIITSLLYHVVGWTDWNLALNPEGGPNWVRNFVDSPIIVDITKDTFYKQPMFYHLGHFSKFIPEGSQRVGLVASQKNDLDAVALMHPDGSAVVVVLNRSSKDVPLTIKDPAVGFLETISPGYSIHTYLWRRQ

almond β-galactosidase = conditions: cited from earlier work

- increase of intracellular β-Glu activity in Gaucher fibroblasts ([1]; N370S/N370S, 1-50 μM in the culture medium, FIG. 8A): 55-80%
- residual β-Glu activity in Gaucher cells, time course ([1]; N370S/N370S, day 1 or 2, FIG. 8B): did not change
- increase of β-Glu activity in Gaucher cells, time course ([1]; N370S/N370S, day 5, FIG. 8B): more than 80%
- β-Glu enhancement effect at high concentration ([1]; N370S/N370S, higher than 50 μM): nullified the enhancement effect
- intracellular β-Glu activity in Gaucher fibroblasts (summary) ([1]; concentration ranges of 0.05-100 μM): effectively enhance
SMILES: OC[C@H]1CNC[C@@H](O)[C@@H]1O [compound 33, isofagomine]
- inhibition of almond β-galactosidase (in words) (almond β-galactosidase): potent inhibitor
